Earlier results as cited in patent publication US7666888B2, “Substituted azole aromatic heterocycles as inhibitors of 11β-HSD-1” (Amgen Inc., priority 2006, dated 2010).

Legend:
bone nodule formation = conditions: glucocorticoid effect
normal subjects = conditions: ingestion

CC1(C)[C@@H](OC(=O)CCC(=O)O)CC[C@]2(C)[C@H]3C(=O)C=C4[C@@H]5C[C@@](C)(C(=O)O)CC[C@]5(C)CC[C@@]4(C)[C@]3(C)CC[C@@H]12 [carbenoxolone]
negative effect on bone nodule formation (bone nodule formation): blocked | Hepatic insulin sensitivity (healthy human volunteers): improved | reduce the intraocular pressure (normal subjects): 20%
